Columns and labels:
Type in all cases: biochemical
[1] = target: T1, PYR1-HAB1 (Arabidopsis thaliana, UniProt O49686); assay: PP2C activity assay, PYR1-HAB1 inhibition; conditions: for IC50: dose response in triplicate, non-linear regression; for activity at 0.2 µM: 200 nM test compound, 100 nM HAB1 PP2C, 200 nM receptor, read-out: % Inhibition of PYR/PYL-HAB1 at 200 nM: PYR1
T1 construct: 6xHis (N); made in house; host or cells: E. coli BL21[DE3]pLysS (stated for GST-HAB1)
T1 sequence (O49686 1-191): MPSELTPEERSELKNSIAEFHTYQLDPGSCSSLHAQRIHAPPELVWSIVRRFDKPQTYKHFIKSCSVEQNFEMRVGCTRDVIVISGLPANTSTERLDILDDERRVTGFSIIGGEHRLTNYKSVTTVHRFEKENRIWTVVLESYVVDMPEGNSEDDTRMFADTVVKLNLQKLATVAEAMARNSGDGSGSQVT
T1 sequence (Q9CAJ0 23-511 partner): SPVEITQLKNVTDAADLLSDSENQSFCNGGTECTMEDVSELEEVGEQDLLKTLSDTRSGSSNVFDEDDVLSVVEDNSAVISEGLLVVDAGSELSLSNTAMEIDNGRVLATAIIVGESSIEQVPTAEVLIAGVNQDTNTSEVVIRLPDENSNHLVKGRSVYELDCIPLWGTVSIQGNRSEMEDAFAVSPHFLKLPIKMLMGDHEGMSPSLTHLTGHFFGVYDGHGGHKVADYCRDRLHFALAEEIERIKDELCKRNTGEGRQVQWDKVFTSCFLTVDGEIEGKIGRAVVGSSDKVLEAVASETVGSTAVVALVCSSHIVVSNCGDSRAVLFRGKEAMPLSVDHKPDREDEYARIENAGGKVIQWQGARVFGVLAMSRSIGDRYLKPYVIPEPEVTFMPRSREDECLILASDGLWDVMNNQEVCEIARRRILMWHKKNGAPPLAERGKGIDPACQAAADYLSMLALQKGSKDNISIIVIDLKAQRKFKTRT
Source text: (§1) The protein HAB1, a type 2 protein phosphatase (PP2C), is inhibited by PYR/PYL proteins in dependence of abscisic acid or other agonists. The potency of an agonist correlates with the level of inhibition of the PP2C, and therefore the IC50 (receptor-HAB1) can be used to compare the relative activity of different chemical analogues. Since inhibition of PP2C correlates to inhibition of seed-germination and increase in plant water-use efficiency, it serves as a powerful tool to quantify biological potential of a chemical acting as an analogue of abscisic acid.
(§2) HAB1 and PYL proteins were expressed and purified as described in Park et al. ((2009) Science 324(5930):1068-1071), with minor modifications. GST-HAB1 was produced by expression in BL21[DE3]pLysS host cells with an expression clone containing the HAB1 cDNA cloned into pGex-2T. Transformed E. coli cells were pre-cultured overnight, transferred to LB medium and cultured at 30° C. to culture A600 of ˜0.5 OD units. The culture was then cooled on ice and MnCl2 added to 4 mM and IPTG added to 0.3 mM. After 16 hours incubation at 15° C., cells were harvested and recombinant proteins were purified on glutathione agarose as described in Park et al. To obtain 6×His-PYL receptor fusion proteins, we used expression constructs previously described by Okamoto et al. 2013, (PNAS 110(29): 12132-12137).
(§3) PP2C activity assays using recombinant receptors and PP2Cs were carried out as follows: purified proteins were pre-incubated in 160 μl assay buffer containing (100 mM Tris-HCl-pH7.9, 100 mM NaCl, 3 μg bovine serum albumin and 0.1% 2-mercaptoethanol), 1 mM MnCl2 with carrier solvent (DMSO), quinabactin or quinabactin analogs (compounds of the present invention) for 30 minutes at room temperature. Reactions were started by adding 40 μL of a reaction solution containing 25 mM 4-nitrophenyl phosphate in assay buffer, after which absorbance measurements were immediately collected (405 nm) using a Wallac plate reader. […] Inhibition is indicated by reduced PP2C activity, which is expressed as a percentage of the control PP2C activity values that were obtained from assays containing carrier solvent instead but no test compound.

[2] = target: T2, PYL2-HAB1 (Arabidopsis thaliana, UniProt O80992); assay: PP2C activity assay, PYL2-HAB1 inhibition; conditions: for IC50: dose response in triplicate, non-linear regression; for percent inhibition at 0.2 µM: 200 nM test compound, 100 nM HAB1 PP2C, 200 nM receptor, read-out: % Inhibition of PYR/PYL-HAB1 at 200 nM: PYL2
T2 construct: 6xHis (N); made in house; host or cells: E. coli BL21[DE3]pLysS (stated for GST-HAB1)
T2 sequence (O80992 1-190): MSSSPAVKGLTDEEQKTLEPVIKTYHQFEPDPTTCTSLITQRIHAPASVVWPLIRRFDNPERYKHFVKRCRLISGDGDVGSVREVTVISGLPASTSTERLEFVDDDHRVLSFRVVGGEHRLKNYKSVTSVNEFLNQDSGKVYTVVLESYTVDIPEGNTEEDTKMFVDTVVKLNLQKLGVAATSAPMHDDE
T2 sequence (Q9CAJ0 23-511 partner): T1 sequence (Q9CAJ0 23-511 partner)
Source text: as §1, §2, §3

[3] = target: T3, PYL1-HAB1 (Arabidopsis thaliana, UniProt Q8VZS8); assay: PP2C activity assay, PYL1-HAB1 inhibition; conditions: 200 nM test compound, 100 nM HAB1 PP2C, 200 nM receptor; read-out: % Inhibition of PYR/PYL-HAB1 at 200 nM: PYL1
T3 construct: 6xHis (N); made in house; host or cells: E. coli BL21[DE3]pLysS (stated for GST-HAB1)
T3 sequence (Q8VZS8 1-221): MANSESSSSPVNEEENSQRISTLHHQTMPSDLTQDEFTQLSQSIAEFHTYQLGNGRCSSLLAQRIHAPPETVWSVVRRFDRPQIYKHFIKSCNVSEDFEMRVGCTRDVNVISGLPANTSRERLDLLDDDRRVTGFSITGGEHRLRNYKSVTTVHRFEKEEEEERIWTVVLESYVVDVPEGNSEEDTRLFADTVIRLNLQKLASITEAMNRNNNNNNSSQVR
T3 sequence (Q9CAJ0 23-511 partner): T1 sequence (Q9CAJ0 23-511 partner)
Source text: as §1, §2
PP2C activity assays using recombinant receptors and PP2Cs were carried out as follows: purified proteins were pre-incubated in 160 μl assay buffer containing (100 mM Tris-HCl-pH7.9, 100 mM NaCl, 3 μg bovine serum albumin and 0.1% 2-mercaptoethanol), 1 mM MnCl2 with carrier solvent (DMSO), quinabactin or quinabactin analogs (compounds of the present invention) for 30 minutes at room temperature. Reactions were started by adding 40 μL of a reaction solution containing 25 mM 4-nitrophenyl phosphate in assay buffer, after which absorbance measurements were immediately collected (405 nm) using a Wallac plate reader. Reactions contained 100 nM HAB1 PP2C and 200 nM receptor and 200 nM test compound. Inhibition is indicated by reduced PP2C activity, which is expressed as a percentage of the control PP2C activity values that were obtained from assays containing carrier solvent instead but no test compound.

| IC50 [1] [nM] | IC50 [2] [nM] | activity at 0.2 µM [1] [%] | percent inhibition at 0.2 µM [2] [%] | activity at 0.2 µM [3] [%] | SMILES |
| --- | --- | --- | --- | --- | --- |
| 953 | 94 |  |  |  | CCN1C(=O)CC(C)c2cc(NS(=O)(=O)Cc3ccc(Cl)s3)cc(F)c21 (stereo not drawn) [HQ57] |
| > 10000 | 930 |  |  |  | CCN1C(=O)CC(C)c2cc(NS(=O)(=O)Cc3ccc(C)cc3C)cc(F)c21 (stereo not drawn) [HQ51] |
| > 10000 | 7730 |  |  |  | CCN1C(=O)CC(C)c2cc(NS(=O)(=O)c3ccccc3)cc(F)c21 (stereo not drawn) [HQ45] |
| 164 | 52 |  |  |  | C=CCN1C(=O)CC(C)c2cc(NS(=O)(=O)Cc3ccc(C)cc3)cc(F)c21 (stereo not drawn) [HQ31] |
| > 10000 | 1600 |  |  |  | CCN1C(=O)CC(C)c2cc(NS(=O)(=O)Cc3ccc(C)nc3)cc(F)c21 (stereo not drawn) [HQ55] |
| 37 | 12 |  |  |  | CCc1ccc(CS(=O)(=O)Nc2cc(F)c3c(c2)C(C)CC(=O)N3CC)cc1 (stereo not drawn) [HQ35] |
| 589 | 247 |  |  |  | CCN1C(=O)CC(C)c2cc(NS(=O)(=O)Cc3ccc(C#N)cc3F)cc(F)c21 (stereo not drawn) [HQ42] |
| 2370 | 250 |  |  |  | CCN1C(=O)CC(C)c2cc(NS(=O)(=O)Cc3ccc(C(F)(F)F)cc3)cc(F)c21 (stereo not drawn) [HQ44] |
| 56 | 23 |  |  |  | CCN1C(=O)CC(C)c2cc(NS(=O)(=O)Cc3ccc(C)cc3F)cc(F)c21 (stereo not drawn) [HQ48] |
| > 10000 | 4470 |  |  |  | CCN1C(=O)CC(C)c2cc(NS(=O)(=O)Cc3ccc(C)cc3Br)cc(F)c21 (stereo not drawn) [HQ50] |
| 444 | 46 |  |  |  | CCN1C(=O)CC(C)c2cc(NS(=O)(=O)Cc3ccc(C)c(F)c3)cc(F)c21 (stereo not drawn) [HQ52] |
| > 10000 | 2010 |  |  |  | CCN1C(=O)CC(C)c2cc(NS(=O)(=O)Cc3ccc(Cl)cc3Cl)cc(F)c21 (stereo not drawn) [HQ43] |
| 1250 | 486 |  |  |  | CCN1C(=O)CC(C)c2cc(NS(=O)(=O)Cc3ccc(Cl)nc3)cc(F)c21 (stereo not drawn) [HQ56] |
| 153 | 160 |  |  |  | CCN1C(=O)CC(C)c2cc(NS(=O)(=O)Cc3ccc(C)cn3)cc(F)c21 (stereo not drawn) [HQ53] |
| 405 | 112 |  |  |  | CCN1C(=O)CC(C)c2cc(NS(=O)(=O)Cc3ccc(C#N)cc3)cc(F)c21 (stereo not drawn) [HQ49] |
| 512 | 234 |  |  |  | CCN1C(=O)CC(C)c2cc(NS(=O)(=O)Cc3ccc(Cl)cn3)cc(F)c21 (stereo not drawn) [HQ54] |
| 103 | 26 |  |  |  | CCN1C(=O)CC(C)c2cc(NS(=O)(=O)Cc3ccc(COC)cc3)cc(F)c21 (stereo not drawn) [HQ38] |
| 39.6 | 11 |  |  |  | CCN1C(=O)CC(C)c2cc(NS(=O)(=O)Cc3ccc(C)cc3)cc(F)c21 (stereo not drawn) [HQ30, N-(1-ethyl-8-fluoro-4-methyl-2-oxo-3,4-dihydroquinolin-6-yl)-1-(p-tolyl)methanesulfonamide] |

More lines, now with the values behind:

| SMILES | IC50 [1] [nM] | IC50 [2] [nM] | activity at 0.2 µM [1] [%] | percent inhibition at 0.2 µM [2] [%] | activity at 0.2 µM [3] [%] |
| --- | --- | --- | --- | --- | --- |
| CCCN1C(=O)CCc2cc(NS(=O)(=O)Cc3ccc(C)cc3)cc(Br)c21 [HQ40] | 165 | 239 |  |  |  |
| C=CCN1C(=O)CCc2cc(NS(=O)(=O)Cc3ccc(C)cc3)cc(F)c21 [HQ28] | 62.3 | 401 |  |  |  |
| Cc1ccc(CS(=O)(=O)Nc2cc(F)c3c(c2)C(C)CC(=O)N3C(C)C)cc1 (stereo not drawn) [HQ32] | 408 | 40 |  |  |  |
| CCCN1C(=O)CCc2cc(NS(=O)(=O)Cc3ccc(Br)cc3F)cc(F)c21 [HQ5] |  |  | 42.9 | 51.8 | 18.2 |
| C=CCN1C(=O)CC(C)c2cc(NS(=O)(=O)Cc3ccc(CC)cc3)cc(F)c21 (stereo not drawn) [HQ33] | 204 | 61 |  |  |  |
| CCCN1C(=O)CCc2cc(NS(=O)(=O)Cc3ccc(C(F)(F)F)nc3)cc(F)c21 [HQ19] |  |  | 82.7 | 82.3 | 73.4 |
| CCCN1C(=O)CCc2cc(NS(=O)(=O)Cc3ccc(C#N)cc3F)cc(F)c21 [HQ11] | 61.2 | 317 | 28.8 | 73.5 | 27.9 |
| Cc1ccc(CS(=O)(=O)Nc2cc(F)c3c(c2)C(C)CC(=O)N3C2CC2)cc1 (stereo not drawn) [HQ39] | 1260 | 77 |  |  |  |
| CCCN1C(=O)CCc2cc(NS(=O)(=O)Cc3ccc(Cl)cc3)cc(F)c21 [HQ18] | 63.3 | 102 | 35 | 46.7 | 34.2 |
| CCN1C(=O)CCc2cc(NS(=O)(=O)Cc3ccc(C)cc3)cc(F)c21 [HQ29] | 17.2 | 83 |  |  |  |
| CCCN1C(=O)CCc2cc(NS(=O)(=O)Cc3cccc(F)c3F)cc(F)c21 [HQ7] |  |  | 53.9 | 67.4 | 31 |
| CCCN1C(=O)CCc2c1ccc(NS(=O)(=O)Cc1ccc(C)cc1)c2F [HQ46] | 694 | 1460 |  |  |  |
| CCCN1C(=O)CCc2cc(NS(=O)(=O)Cc3ccc(C(=O)OC)cc3)cc(F)c21 [HQ14] |  |  | 62.6 | 91.8 | 78.9 |
| CCCN1C(=O)CCc2cc(NS(=O)(=O)Cc3ccc(Br)cc3)cc(F)c21 [HQ25] | 75 | 77 | 33.8 | 42.8 | 20.8 |
| CCCN1C(=O)CCc2cc(NS(=O)(=O)Cc3ccc(C)cc3)c(F)cc21 [HQ47, N-(7-fluoro-2-oxo-1-propyl-3,4-dihydroquinolin-6-yl)-1-(p-tolyl)methanesulfonamide] | 172 | 182 |  |  |  |
| CCc1ccc(CS(=O)(=O)Nc2cc(F)c3c(c2)C(C)CC(=O)N3C(C)C)cc1 (stereo not drawn) [HQ34] | 462 | 26 |  |  |  |
| COCc1ccc(CS(=O)(=O)Nc2cc(F)c3c(c2)C(C)CC(=O)N3C(C)C)cc1 (stereo not drawn) [HQ37] | 227 | 33 |  |  |  |
| C=CCN1C(=O)CC(C)c2cc(NS(=O)(=O)Cc3ccc(COC)cc3)cc(F)c21 (stereo not drawn) [HQ36] | 126 | 32 |  |  |  |
| CCCN1C(=O)CCc2cc(NS(=O)(=O)Cc3ccc(C)cc3)cc(C#N)c21 [HQ41] | 967 | 1450 |  |  |  |

Source: patent publication US11332443B2, “Derivatives of halo quinabactin” (THE REGENTS OF THE UNIVERSITY OF CALIFORNIA, priority 2015, dated 2022)
